# In US20080170993A1, “THYMIDINE ANALOGS FOR IMAGING” (priority 2006, published 2008):
# Biological target: T1, recombinant thymidine kinase 1 (TK-1) (Homo sapiens, UniProt P04183)
# T1 sequence (P04183 1-234): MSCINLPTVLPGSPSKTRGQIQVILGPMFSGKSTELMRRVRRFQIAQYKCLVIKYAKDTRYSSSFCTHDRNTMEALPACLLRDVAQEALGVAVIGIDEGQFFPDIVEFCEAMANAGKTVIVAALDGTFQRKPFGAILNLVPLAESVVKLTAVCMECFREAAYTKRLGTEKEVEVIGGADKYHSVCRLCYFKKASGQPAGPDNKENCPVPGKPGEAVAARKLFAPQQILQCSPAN
# Settings: cold 19F analogues; 100 μM ATP+P-32-ATP, 10-60 ng thymidine kinase; TLC, phosphoimager; thymidine 100%
row,SMILES,In vitro-Phosphorylation
1,Cc1cn([C@H]2C[C@H](O)[C@@H](CO)O2)c(=O)n(CCCNC(=O)c2ccc(F)c(C(F)(F)F)c2)c1=O,12% ± 1.1%
2,Cc1cn([C@H]2C[C@H](O)[C@@H](CO)O2)c(=O)n(CCCCN(C)C(=O)c2ccc(F)c(C#N)c2)c1=O,12% ± 2.8%
3,Cc1cn([C@H]2C[C@H](O)[C@@H](CO)O2)c(=O)n(CCNC(=O)CNC(=O)C(CF)NS(=O)(=O)c2c(C(C)C)cc(C(C)C)cc2C(C)C)c1=O (some centres unmarked),19% ± 3.7%
4,Cc1cn([C@H]2C[C@H](O)[C@@H](CO)O2)c(=O)n(CCCCCCNC(=O)CNC(=O)C(CF)NS(=O)(=O)c2c(C(C)C)cc(C(C)C)cc2C(C)C)c1=O (some centres unmarked),17% ± 10.2%
5,Cc1cn([C@H]2C[C@H](O)[C@@H](CO)O2)c(=O)n(CCCNC(=O)Cc2ccc([Si](F)(C(C)C)C(C)C)cc2)c1=O,17% ± 1.5%
6,N#Cc1cc(C(=O)NCCCCCCn2c(=O)c(C(F)(F)F)cn([C@H]3C[C@H](O)[C@@H](CO)O3)c2=O)ccc1F,49% ± 9.9%
7,Cc1cn([C@H]2C[C@H](O)[C@@H](CO)O2)c(=O)n(CCCCCCCNC(=O)c2ccc(F)c(C#N)c2)c1=O,36% ± 6.5%
8,Cc1cn([C@H]2C[C@H](O)[C@@H](CO)O2)c(=O)n(CCCNC(=O)CCc2cccc([Si](F)(C(C)C)C(C)C)c2)c1=O,15% ± 6.1%
9,Cc1cn([C@H]2C[C@H](O)[C@@H](CO)O2)c(=O)n(CC#CCF)c1=O,23% ± 8.0%
10,Cc1cn([C@H]2C[C@H](O)[C@@H](CO)O2)c(=O)n(Cc2ccc(F)cc2)c1=O,34% ± 18.6%
11,Cc1cn([C@H]2C[C@H](O)[C@@H](CO)S2)c(=O)n(CCCCCCF)c1=O,26% ± 4.0%
12,Cc1cn([C@H]2C[C@H](O)[C@@H](CO)S2)c(=O)[nH]c1=O,70% ± 9.3%
13,"Cc1cn([C@H]2C[C@H](F)[C@@H](CO)O2)c(=O)[nH]c1=O [FLT, 3′-[F-18]fluoro-3′-deoxythymidine, reference compound]",58% ± 11.9%
14,Cc1cn([C@H]2C[C@H](O)[C@@H](CO)O2)c(=O)n(CCCCF)c1=O [TD-1],13% ± 5.4%
15,Cc1cn([C@H]2C[C@H](O)[C@@H](CO)O2)c(=O)n(CCCCCCF)c1=O [TD-2],30% ± 3.7%
16,Cc1cn([C@H]2C[C@H](O)[C@@H](CO)O2)c(=O)n(CCCCCCNC(=O)c2ccc(F)c(C#N)c2)c1=O [TD-8],41% ± 9.5%
17,Cc1cn([C@H]2C[C@H](O)[C@@H](CO)O2)c(=O)n(CCCCNC(=O)c2ccc(F)c(C#N)c2)c1=O [TD-9],21% ± 4.6%
